Results as given in ChEMBL document CHEMBL1201862, “PubChem BioAssay data set” (2004).
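Cells were grown in 96-well plates and exposed to each compound for 48 hours at five concentrations; endpoints were interpolated linearly between bracketing concentrations, or set to the highest concentration if not reached. Abbreviation: GI50, concentration required for 50% inhibition of growth.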 Activity calls are given as the source filed them. No stated cut-off is given here; in the data, active = GI50 up to about 1.1 µM and inactive = higher.

Experiments:
Assay in all cases: NCI anticancer screen, dose series, 48 h
786-0 = test system: 786-0
A498 = test system: A498
A549 = test system: A549
ACHN = test system: ACHN
BT-549 = test system: BT-549
CAKI-1 = test system: CAKI-1
CCRF-CEM = test system: CCRF-CEM
COLO 205 = test system: COLO 205
DU-145 = test system: DU-145
HCC 2998 = test system: HCC 2998
HCT-116 = test system: HCT-116
HCT-15 = test system: HCT-15
HL-60 = test system: HL-60
HOP-62 = test system: HOP-62
HOP-92 = test system: HOP-92
HT-29 = test system: HT-29
IGROV-1 = test system: IGROV-1
K562 = test system: K562
KM12 = test system: KM12
M14 = test system: M14
MCF7 = test system: MCF7
MDA-MB-231 = test system: MDA-MB-231
MDA-MB-435 = test system: MDA-MB-435
MDA-N = test system: MDA-N
MOLT-4 = test system: MOLT-4
Malme-3M = test system: Malme-3M
NCI-H226 = test system: NCI-H226
NCI-H460 = test system: NCI-H460
NCI-H522 = test system: NCI-H522
NCI/ADR-RES = test system: NCI/ADR-RES
OVCAR-3 = test system: OVCAR-3
OVCAR-4 = test system: OVCAR-4
OVCAR-5 = test system: OVCAR-5
OVCAR-8 = test system: OVCAR-8
PC-3 = test system: PC-3
RPMI-8226 = test system: RPMI-8226
RXF 393 = test system: RXF 393
SF-268 = test system: SF-268
SF-295 = test system: SF-295
SF-539 = test system: SF-539
SK-MEL-28 = test system: SK-MEL-28
SK-MEL-2 = test system: SK-MEL-2
SK-MEL-5 = test system: SK-MEL-5
SK-OV-3 = test system: SK-OV-3
SN12C = test system: SN12C
SR = test system: SR
T47D = test system: T47D
TK-10 = test system: TK-10
U-251 = test system: U-251
UACC-257 = test system: UACC-257
UACC-62 = test system: UACC-62
UO-31 = test system: UO-31
EKVX = test system: EKVX
Hs-578T = test system: Hs-578T
NCI-H23 = test system: NCI-H23
SNB-19 = test system: SNB-19
SNB-75 = test system: SNB-75
SW-620 = test system: SW-620

How did the GI50 (786-0) turn out when `Cc1cc(S(=O)(=O)N/C(=C(\C#N)C(=O)c2ccc(Cl)cc2)[n+]2ccc(N(C)C)cc2)c([S-])cc1Cl` was run?
The GI50 was > 100 µM (inactive).

What about the GI50 (A498) of the same compound?
Its GI50 is 12.3 µM (inactive).

What about the GI50 (A549) of the same compound?
Its GI50 is 37.6 µM (inactive).

And the GI50 (ACHN)?
The GI50 was > 100 µM (inactive).

And the GI50 (BT-549)?
Its GI50 is > 100 µM (inactive).

And the GI50 (CAKI-1)?
The GI50 was > 100 µM (inactive).

And the GI50 (CCRF-CEM)?
Its GI50 is 64 µM (inactive).

What about the GI50 (COLO 205) of the same compound?
Its GI50 is > 100 µM (inactive).

And the GI50 (DU-145)?
Its GI50 is > 100 µM (inactive).

What about the GI50 (HCC 2998) of the same compound?
The GI50 was 83 µM (inactive).

And the GI50 (HCT-116)?
The GI50 was 19.8 µM (inactive).

What about the GI50 (HCT-15) of the same compound?
Its GI50 is 48.6 µM.

And the GI50 (HL-60)?
The GI50 was > 100 µM (inactive).

And the GI50 (HOP-62)?
Its GI50 is 38.1 µM (inactive).

And the GI50 (HOP-92)?
The GI50 was < 0.01 µM (active).

What about the GI50 (HT-29) of the same compound?
The GI50 was 30.1 µM (inactive).

What about the GI50 (IGROV-1) of the same compound?
Its GI50 is > 100 µM (inactive).

What about the GI50 (K562) of the same compound?
Its GI50 is 53.2 µM (inactive).

What about the GI50 (KM12) of the same compound?
Its GI50 is > 100 µM (inactive).

And the GI50 (M14)?
The GI50 was 41.9 µM (inactive).

And the GI50 (MCF7)?
The GI50 was 71.3 µM (inactive).

What about the GI50 (MDA-MB-231) of the same compound?
The GI50 was > 100 µM (inactive).

What about the GI50 (MDA-MB-435) of the same compound?
Its GI50 is > 100 µM (inactive).

What about the GI50 (MDA-N) of the same compound?
The GI50 was > 100 µM (inactive).

What about the GI50 (MOLT-4) of the same compound?
The GI50 was > 100 µM (inactive).

And the GI50 (Malme-3M)?
The GI50 was 0.836 µM (active).

And the GI50 (NCI-H226)?
Its GI50 is > 100 µM (inactive).

And the GI50 (NCI-H460)?
Its GI50 is 42.6 µM (inactive).

And the GI50 (NCI-H522)?
Its GI50 is 28.9 µM (inactive).

And the GI50 (NCI/ADR-RES)?
The GI50 was 73.3 µM (inactive).

What about the GI50 (OVCAR-3) of the same compound?
The GI50 was 45.1 µM (inactive).

And the GI50 (OVCAR-4)?
Its GI50 is 40.9 µM (inactive).

What about the GI50 (OVCAR-5) of the same compound?
Its GI50 is 66.5 µM (inactive).

What about the GI50 (OVCAR-8) of the same compound?
Its GI50 is > 100 µM (inactive).

What about the GI50 (PC-3) of the same compound?
The GI50 was 36.6 µM (inactive).

And the GI50 (RPMI-8226)?
Its GI50 is 45.2 µM (inactive).

What about the GI50 (RXF 393) of the same compound?
The GI50 was > 100 µM (inactive).

What about the GI50 (SF-268) of the same compound?
Its GI50 is 76.6 µM (inactive).

And the GI50 (SF-295)?
The GI50 was 62.2 µM (inactive).

What about the GI50 (SF-539) of the same compound?
The GI50 was 67.3 µM (inactive).

What about the GI50 (SK-MEL-28) of the same compound?
Its GI50 is > 100 µM (inactive).

What about the GI50 (SK-MEL-2) of the same compound?
The GI50 was 4.84 µM (inactive).

And the GI50 (SK-MEL-5)?
Its GI50 is > 100 µM (inactive).

What about the GI50 (SK-OV-3) of the same compound?
Its GI50 is 30.5 µM (inactive).

What about the GI50 (SN12C) of the same compound?
Its GI50 is > 100 µM (inactive).

And the GI50 (SR)?
The GI50 was 41.3 µM (inactive).

And the GI50 (T47D)?
Its GI50 is > 100 µM (inactive).

What about the GI50 (TK-10) of the same compound?
The GI50 was 43.2 µM (inactive).

And the GI50 (U-251)?
Its GI50 is > 100 µM (inactive).

And the GI50 (UACC-257)?
The GI50 was < 0.01 µM (active).

And the GI50 (UACC-62)?
Its GI50 is > 100 µM (inactive).

What about the GI50 (UO-31) of the same compound?
The GI50 was > 100 µM (inactive).

Which results are given for `COC1(C2c3ccccc3CCN2C(=O)OC(C)(C)C)C(=O)C(c2ccccc2)=C1N(C)C` (stereo not given)?
GI50 (786-0): 26.9 µM (inactive); GI50 (A498): 25.4 µM (inactive); GI50 (A549): 27.5 µM (inactive); GI50 (ACHN): 33.5 µM (inactive); GI50 (BT-549): 27.9 µM (inactive); GI50 (CAKI-1): 45.7 µM (inactive); GI50 (CCRF-CEM): 38.9 µM (inactive); GI50 (COLO 205): 18.5 µM (inactive); GI50 (DU-145): 55.8 µM (inactive); GI50 (EKVX): 40.6 µM (inactive); GI50 (HCT-116): 25.7 µM (inactive); GI50 (HCT-15): 30.9 µM; GI50 (HL-60): 19.7 µM (inactive); GI50 (HOP-62): 37 µM (inactive); GI50 (HOP-92): 44.8 µM (inactive); GI50 (HT-29): 18.1 µM (inactive); GI50 (Hs-578T): 32.7 µM (inactive); GI50 (KM12): 34.4 µM (inactive); GI50 (M14): 27.3 µM (inactive); GI50 (MCF7): 44.8 µM (inactive); GI50 (MDA-MB-435): 22.9 µM (inactive); GI50 (MDA-N): 21.5 µM (inactive); GI50 (MOLT-4): 43.3 µM (inactive); GI50 (Malme-3M): 35.2 µM (inactive); GI50 (NCI-H226): 19.7 µM (inactive); GI50 (NCI-H23): 23.3 µM (inactive); GI50 (NCI-H460): 29.8 µM (inactive); GI50 (NCI-H522): 21.2 µM (inactive); GI50 (NCI/ADR-RES): 21.1 µM (inactive); GI50 (OVCAR-3): 27.7 µM (inactive); GI50 (OVCAR-4): 46.9 µM (inactive); GI50 (OVCAR-5): 74.5 µM (inactive); GI50 (OVCAR-8): 68.7 µM (inactive); GI50 (PC-3): 25.2 µM (inactive); GI50 (RXF 393): 30.2 µM (inactive); GI50 (SF-268): 45.1 µM (inactive); GI50 (SF-295): 30.8 µM (inactive); GI50 (SF-539): 19.1 µM (inactive); GI50 (SK-MEL-28): 62.4 µM (inactive); GI50 (SK-MEL-2): 27.3 µM (inactive); GI50 (SK-MEL-5): 20.7 µM (inactive); GI50 (SK-OV-3): 37.9 µM (inactive); GI50 (SN12C): 17.1 µM (inactive); GI50 (SNB-19): 27.5 µM (inactive); GI50 (SNB-75): 43.6 µM (inactive); GI50 (SR): 79.3 µM (inactive); GI50 (SW-620): 37.8 µM (inactive); GI50 (T47D): 53.7 µM (inactive); GI50 (TK-10): 48.2 µM (inactive); GI50 (U-251): 37.2 µM (inactive); GI50 (UACC-257): 40.6 µM (inactive); GI50 (UACC-62): 30.5 µM (inactive); GI50 (UO-31): 26.8 µM (inactive)
